# Assays:
# Type in all cases: physicochemical
# [1] = F3 block stability study in sodium stearate aqueous gel (GC-MS); details: after 3 months
# Description: Aqueous sodium stearate gel is a method used by SIGNS for several of the pheromones it markets (pork, poultry, rabbit). The sodium stearate matrix is cast at high temperature (60° C.) and contains 2% pheromone. In this study, matrix samples are taken by coring, and the active ingredients are extracted by apolar solvent, using the SIGNS-validated quality control method. Extracts are analyzed by GC-MS. […] Given this observation, formula F3 cannot be used in blocks for passive diffusion, so a change of galenic formulation is necessary.
# [2] = F3 direct diffusion and mass loss, 40 mL and eight sticks with a refill; details: F3, eight sticks
# Description: To that purpose, three devices containing 40 mL of F3 feline facial pheromone product and eight rattan sticks were prepared and left on diffusion. Every Monday, Wednesday and Friday, the diffusion of the pheromone in air was checked by analysis by gas chromatography coupled with mass spectrometer (GC/MS) and SPME (solid phase microextraction) until there was no liquid left. Then, the solution was refilled and a second study of the diffusion of the pheromone was performed.
# Experimentally, the studied device was taken and placed into a closed space under identical conditions than in section E/, and for analyzing the same data.
# Each measuring day, the devices were weighed and the level of the solution in the flask was controlled.
# [3] = Ratios of molecules diffused through the sticks over time
# Description: Furthermore, as small molecules diffuse more, it happens that they lose intensity over the course of the study, so the ratios are different 24 hours after immersing the sticks in the liquid and 21 days later. Here are the ratios for each pheromone studied at the start of the study and at the end.
# [4] = F3 direct diffusion, 120 mL and six sticks; details: 6 sticks
# Description: To that purpose, three devices containing 120 mL of F3 feline facial pheromone product and six rattan sticks were prepared and left on diffusion as shown on FIG. 43.
# The direct diffusion of F3 pheromone was then studied following the same protocol as the protocol of the first study shown in Section E/herein.
# Each measuring day, the flasks were weighed, and the volume of the liquid was checked visually: see FIGS. 55 and 56.
# [5] = F3 sticks device, direct diffusion, 40 mL and four sticks (SPME GC/MS); details: four sticks
# Description: Three devices containing 40 mL of F3 feline facial pheromone product and four rattan sticks were prepared and left on diffusion. Every Monday, Wednesday and Friday, the diffusion of the pheromone in air was checked by analysis by gas chromatography coupled with mass spectrometer (GC/MS) and SPME (solid phase microextraction) until there is no liquid left (about 22 days).
# To that purpose, the studied device was taken and placed into a closed space (in our case an aquarium turned over) containing the SPME fiber as shown on FIG. 24.
# The SPME fiber was left for two hours to give the time for the molecules to adsorb on the fiber, then the fiber was injected into the GC/MS instrument for analysis.
# Analysis were carried out using gas chromatography with mass spectrometer. The instrument was a GCMS QP2010SE® from Shimadzu with an AOC6000® Autosampler. The separation was performed on a ZB-5 MS® column (30 m×0.25 mm×0.25 μm, stationary phase: 95% Dimethylpolysiloxane, 5% Phenyl-Arylene) from Phenomenex. The GC oven temperature was initially held at 100° C. for 1 minute then increased at a pace of 10° C./min to 120° C. and left at this temperature for 3 minutes. Finally, the oven temperature was increased at a pace of 10° C./min to 240° C. and left at this temperature for 10 minutes. The carrier gas was helium at 1 mL/min. Analysis were performed in split mode using a split/splitless injector (Temperature: 250° C., split: 1:20). The SPME fiber was directly injected into the injector and left for 30 minutes. Separated molecules were detected using a mass spectrometer which was operated in electron impact ionization (EI) in both full scan (FS) and single ion monitoring (SIM) modes, so called FASST (Fast Automated SCAN/SIM type) mode. The interface temperature was set at 300° C. and electron impact source temperature at 250° C. The analyser was a quadrupole.
# For the measurement of the relative quantity of active ingredient spreading in air, the area of the chromatographic peak corresponding to the compound was measured using Shimadzu GCMS-Solution software.
# [6] = F3 migration along the stick (top 1 cm, GC/MS); details: F3, five sticks
# Description: Three devices containing 40 mL of F3 feline facial pheromone product and five […] sticks were prepared and left on diffusion. A t=1 day, T=3 days, T=10 days, T=15 days and T=22 days after preparation of the devices, one stick was taken on each device and 1 cm of the top of each stick was cut, then extracted with acetone 1 h in an ultrasonic bath and analysed by gas chromatography coupled with mass spectrometry (GC/MS). The same analytical parameters were used for the study C with a liquid injection (injected quantity: […]) Blank analysis and matrix blank analysis were also performed.
# [7] = F3P PCDS indirect diffusion, pheromone remaining in solution (GC/FID)
# Description: For this study, three diffusers each containing 40 mL of product and 6 capillaries were prepared and diffused. Once a week, on Wednesdays, the amount of pheromone remaining in the solution was monitored by gas chromatography analysis coupled to a flame ionization detector (GC/FID) until no liquid remained. The percentage of pheromone was measured weekly.
# Next, the percentage of pheromone was checked by external calibration using a GC/FID calibration range.
# Analyses were carried out by gas chromatography coupled to a flame ionization detector. The instrument was a Shimadzu GC 2025® with an AOC20i® autosampler. Separation was performed on an Agilent DB-FFAP® column (30 m×0.25 mm×0.25 μm, stationary phase: nitroterephthalic acid-modified polyethylene glycol). The temperature of the gas chromatography oven was initially maintained at 140° C. for 2 minutes, then increased at 10° C./min to 250° C. and left at this temperature for 3 minutes. The carrier gas was helium at 1 mL/min. Analyses were performed in split mode using a split/splitless injector (temperature: 250° C., split: 1:50).
# The detector used was a flame ionization detector. The detector temperature was 250° C. with an air flow rate of 400 mL/min, hydrogen 40 mL/min and nitrogen 30 mL/min.
# For this purpose, a calibration range was prepared for each analysis. […]
compound,measurement,setting,value
"COC(=O)CCCCCC(=O)OC [dimethyl pimelate, dimethyl heptanedioate]",stability in the block,[1],disappeared completely
same,intensity of direct diffusion,[2],highest diffusion
same,ratio of molecules diffused through the sticks,"[3]; F3, 24 h after immersion of sticks",70 % (w/w)
same,ratio of molecules diffused through the sticks,"[3]; F3, 21 days after immersion of sticks (empty tank)",48 % (w/w)
same,ratio of molecules diffused through the sticks,"[3]; F3P, 24 h after immersion of the sticks",56 % (w/w)
same,ratio of molecules diffused through the sticks,"[3]; F3P, 21 days after immersion of sticks (empty tank)",36.5 % (w/w)
same,direct diffusion over time,[4],decreased over time
same,direct diffusion over time,[5],gradually decreased over time
same,quantity on the top of the stick over time,[6],decreased significantly between 5 and 10 days before stabilising
same,relative quantity on the top of the stick,[6],less present
same,quantities found in the solution,[7],very low
